Laboratory results reported in patent publication US20160340322A1 (NISSAN CHEMICAL INDUSTRIES, LTD., priority 2013, published 2016).

Each molecule was assayed against T1, Human T-type calcium channel (Cav 3.2) (Homo sapiens, UniProt O95180) (assay: Calcium Influx Inhibition Assay). Details: human T-type calcium channel (Cav 3.2) expressing HEK293 cells; FLIPR Calcium 4 fluorescence; 30 min compound incubation; read-out: T-type calcium channel inhibition concentration IC50.
T1 construct: Edward Perez-Reyes, University of Virginia, USA; host or cells: HEK293
T1 sequence (O95180 whole entry): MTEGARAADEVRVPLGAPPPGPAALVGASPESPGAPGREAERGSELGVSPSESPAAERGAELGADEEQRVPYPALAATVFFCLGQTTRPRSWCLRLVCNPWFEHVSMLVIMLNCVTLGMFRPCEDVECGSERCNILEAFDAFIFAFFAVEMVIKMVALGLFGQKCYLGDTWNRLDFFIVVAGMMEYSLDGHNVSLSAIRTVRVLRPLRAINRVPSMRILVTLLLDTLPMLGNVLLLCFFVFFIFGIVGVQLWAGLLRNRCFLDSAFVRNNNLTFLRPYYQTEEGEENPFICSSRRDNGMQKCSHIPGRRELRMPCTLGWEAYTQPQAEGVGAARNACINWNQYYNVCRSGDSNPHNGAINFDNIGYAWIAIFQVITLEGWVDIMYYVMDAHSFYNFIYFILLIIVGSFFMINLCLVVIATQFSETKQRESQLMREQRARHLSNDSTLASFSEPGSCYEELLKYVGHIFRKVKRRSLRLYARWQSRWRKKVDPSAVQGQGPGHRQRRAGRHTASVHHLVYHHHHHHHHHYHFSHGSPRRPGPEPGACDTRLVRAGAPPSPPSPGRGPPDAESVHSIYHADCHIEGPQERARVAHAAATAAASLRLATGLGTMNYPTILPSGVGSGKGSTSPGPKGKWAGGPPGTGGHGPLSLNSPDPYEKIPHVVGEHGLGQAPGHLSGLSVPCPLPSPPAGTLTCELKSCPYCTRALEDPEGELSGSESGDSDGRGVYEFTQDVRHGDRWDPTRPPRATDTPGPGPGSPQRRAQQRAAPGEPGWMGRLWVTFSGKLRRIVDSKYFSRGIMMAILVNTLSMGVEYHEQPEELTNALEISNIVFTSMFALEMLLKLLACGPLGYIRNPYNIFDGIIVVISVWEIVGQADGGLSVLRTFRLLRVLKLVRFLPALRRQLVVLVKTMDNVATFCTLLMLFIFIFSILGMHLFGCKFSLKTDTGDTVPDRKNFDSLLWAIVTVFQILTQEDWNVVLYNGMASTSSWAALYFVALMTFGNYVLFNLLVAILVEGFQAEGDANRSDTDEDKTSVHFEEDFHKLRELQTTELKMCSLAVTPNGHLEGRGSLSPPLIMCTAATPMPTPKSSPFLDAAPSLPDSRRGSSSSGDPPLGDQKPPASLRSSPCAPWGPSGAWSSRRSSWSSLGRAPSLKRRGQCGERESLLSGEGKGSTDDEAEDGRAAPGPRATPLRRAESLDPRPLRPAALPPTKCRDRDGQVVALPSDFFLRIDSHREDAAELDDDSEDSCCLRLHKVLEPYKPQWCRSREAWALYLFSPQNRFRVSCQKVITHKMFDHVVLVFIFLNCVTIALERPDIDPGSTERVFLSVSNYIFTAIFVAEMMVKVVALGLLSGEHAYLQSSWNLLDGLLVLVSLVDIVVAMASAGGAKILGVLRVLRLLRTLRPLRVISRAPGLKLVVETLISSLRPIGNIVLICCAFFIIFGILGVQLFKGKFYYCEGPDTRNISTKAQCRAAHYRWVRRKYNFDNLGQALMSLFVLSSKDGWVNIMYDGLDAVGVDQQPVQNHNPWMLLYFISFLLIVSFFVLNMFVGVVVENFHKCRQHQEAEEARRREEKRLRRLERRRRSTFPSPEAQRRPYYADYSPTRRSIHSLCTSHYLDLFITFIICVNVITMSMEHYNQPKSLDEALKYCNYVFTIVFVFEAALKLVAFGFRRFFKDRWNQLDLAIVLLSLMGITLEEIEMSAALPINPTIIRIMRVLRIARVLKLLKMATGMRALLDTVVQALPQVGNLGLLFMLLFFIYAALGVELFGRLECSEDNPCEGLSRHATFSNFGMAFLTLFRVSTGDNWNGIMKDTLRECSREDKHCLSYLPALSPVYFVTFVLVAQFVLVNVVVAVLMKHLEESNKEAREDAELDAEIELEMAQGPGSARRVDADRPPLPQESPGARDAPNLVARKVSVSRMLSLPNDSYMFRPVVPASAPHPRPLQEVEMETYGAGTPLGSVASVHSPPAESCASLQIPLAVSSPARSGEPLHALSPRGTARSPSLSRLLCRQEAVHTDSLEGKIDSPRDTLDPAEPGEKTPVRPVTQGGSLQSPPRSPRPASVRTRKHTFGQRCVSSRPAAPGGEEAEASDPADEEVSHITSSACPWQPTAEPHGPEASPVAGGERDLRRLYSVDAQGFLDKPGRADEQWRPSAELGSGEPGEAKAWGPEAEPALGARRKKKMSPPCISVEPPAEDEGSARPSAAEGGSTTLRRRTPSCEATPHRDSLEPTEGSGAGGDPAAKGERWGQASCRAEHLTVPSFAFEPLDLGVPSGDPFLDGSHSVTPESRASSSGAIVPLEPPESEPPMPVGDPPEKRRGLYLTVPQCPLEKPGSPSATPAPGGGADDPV
Type: cell-based
Procedure: 1. Calcium Influx Inhibition Assay Human T-type calcium channel (Cav 3.2) expressing HEK293 cells were introduced from Prof. Edward Perez-Reyes, University of Virginia, USA. The calcium-sensitive fluorescent dye used was FLIPR Calcium 4 Assay Kit (Molecular Devices). To a black 96-well plate with a clear bottom coated with type I collagen, the human T-type calcium channel (Cav 3.2) expressing HEK293 cells were seeded and cultured overnight, and the culture medium was removed. A solution of the calcium-sensitive fluorescent dye was added, and the resultant plate was incubated at 37° C. in an atmosphere of 5% carbon dioxide for 30 minutes. To the plate, a diluted solution of a compound was added, and subjected to further incubation at 37° C. in an atmosphere of 5% carbon dioxide for 30 minutes. While fluorescence was continuously analyzed from the bottom with a FlexStation 3 (Molecular Devices), a calcium solution was added. […] Based on the rise value in the fluorescence from the base line, the inhibition percentage was calculated. The logarithms of compound concentrations were plotted with respect to the inhibition activities to obtain an IC50 value.
`O=c1nc(N2Cc3ccc(OC(F)F)cc3C(O)C2)cnn1Cc1ccc(C(F)(F)F)s1` (stereo not shown) showed an IC50 of 64 nM. `O=c1nc(N2CCN(c3ccc(F)cc3)CC2)cnn1Cc1ccc(Cl)cc1` [Synthesis Example 1, 2-(4-Chlorobenzyl)-5-[4-(4-fluorophenyl)piperazin-1-yl]-1,2,4-triazin-3(2H)-one] gave an IC50 of 220 nM. Work on `CCCCCCOc1ccc(Cn2ncc(N3CCN(c4ccc(F)cc4)CC3)nc2=O)cc1` [Synthesis Example 2, 5-[4-(4-Fluorophenyl)piperazin-1-yl]-2-[4-(hexyloxy)benzyl]-1,2,4-triazin-3(2H)-one] yielded an IC50 of 38 nM. In the case of `O=c1nc(N2CCN(c3ccc(F)cc3)CC2)cnn1Cc1ccc(OCc2ccc(Cl)cc2)cc1` [Synthesis Example 3, 2-{4-[(4-Chlorobenzyl)oxy]benzyl}-5-[4-(4-fluorophenyl)piperazin-1-yl]-1,2,4-triazin-3(2H)-one], the IC50 is reported as 200 nM. With `O=c1nc(N2CCN(c3ccc(F)cc3)CC2)cnn1Cc1ccc(OCc2ccc(F)cc2)cc1` [Synthesis Example 4, 2-{4-[(4-Fluorobenzyl)oxy]benzyl}-5-[4-(4-fluorophenyl)piperazin-1-yl]-1,2,4-triazin-3(2H)-one] the IC50 was 35 nM. `O=c1nc(N2CCN(c3ccc(F)cc3)CC2)cnn1Cc1ccc(C(F)(F)F)s1` [Synthesis Example 5, 5-[4-(4-Fluorophenyl)piperazin-1-yl]-2-{[5-(trifluoromethyl)thiophen-2-yl]methyl}-1,2,4-triazin-3(2H)-one] gave an IC50 of 27 nM. For `O=c1nc(N2CC=C(c3ccc(F)cc3)CC2)cnn1Cc1ccc(C(F)(F)F)s1` [Synthesis Example 6, 5-[4-(4-Fluorophenyl)-5,6-dihydropyridine-1(2H)-yl]-2-{[5-(trifluoromethyl)thiophen-2-yl]methyl}-1,2,4-triazin-3(2H)-one], the IC50 was 24 nM. For `O=c1nc(N2CC=C(c3ccc(F)cc3)[C@@H](O)C2)cnn1Cc1ccc(C(F)(F)F)s1` [Synthesis Example 7, (R)-5-[4-(4-Fluorophenyl)-5-hydroxy-5,6-dihydropyridin-1(2H)-yl]-2-{[5-(trifluoromethyl)thiophene-2-yl]methyl}-1,2,4-triazin-3(2H)-one], the IC50 was 6 nM. With `Cc1ccc(N2CCN(c3cnn(Cc4ccc(C(F)(F)F)s4)c(=O)n3)CC2)nc1` [Synthesis Example 8, 5-[4-(5-methylpyridin-2-yl)piperazin-1-yl]-2-{[5-(trifluoromethyl)thiophene-2-yl]methyl}-1,2,4-triazin-3(2H)-one] the IC50 was 210 nM. With `O=c1nc(N2CCc3c([nH]c4cc(F)ccc34)C2)cnn1Cc1ccc(C(F)(F)F)s1` [Synthesis Example 9, 5-(7-Fluoro-3,4-dihydro-1H-pyrido[3,4-b]indol-2(9H)-yl)-2-{[5-(trifluoromethyl)thiophen-2-yl]methyl}-1,2,4-triazin-3(2H)-one] the IC50 was 17 nM. In the case of `O=c1nc(N2CCN(c3ccc(F)cc3)CC2)cnn1Cc1cnc(C(F)(F)F)s1` [Synthesis Example 10, 5-[4-(4-Fluorophenyl)piperazin-1-yl]-2-{[2-(trifluoromethyl)thiazol-5-yl]methyl}-1,2,4-triazin-3(2H)-one], the IC50 is reported as 490 nM. `O=c1nc(N2CC=C(c3ccc(F)cc3)[C@@H](O)C2)cnn1Cc1cnc(C(F)(F)F)s1` [Synthesis Example 11, (R)-5-[4-(4-Fluorophenyl)-5-hydroxy-5,6-dihydropyridin-1(2H)-yl]-2-{[2-(trifluoromethyl)thiazol-5-yl]methyl}-1,2,4-triazin-3(2H)-one] showed an IC50 of 30 nM. For `Cc1cc(C2=CCN(c3cnn(Cc4cnc(C(F)(F)F)s4)c(=O)n3)C[C@@H]2O)cs1` [Synthesis Example 12, (R)-5-[5-Hydroxy-4-(5-methylthiophen-3-yl)-5,6-dihydropyridin-1(2H)-yl]-2-{[2-(trifluoromethyl)thiazol-5-yl]methyl}-1,2,4-triazin-3(2H)-one], the IC50 was 26 nM. `Cc1ccc(N2CCN(c3cnn(Cc4cnc(C(F)(F)F)s4)c(=O)n3)CC2)nc1` [Synthesis Example 13, 5-[4-(5-Methylpyridin-2-yl)piperazin-1-yl]-2-{[2-(trifluoromethyl)thiazol-5-yl]methyl}-1,2,4-triazine-3(2H)-one] showed an IC50 of 6100 nM. In the case of `O=c1nc(N2CCc3c([nH]c4cc(F)ccc34)C2)cnn1Cc1cnc(C(F)(F)F)s1` [Synthesis Example 14, 5-(7-Fluoro-3,4-dihydro-1H-pyrido[3,4-b]indol-2(9H)-yl)-2-{[2-(trifluoromethyl)thiazol-5-yl]methyl}-1,2,4-triazin-3(2H)-one], the IC50 is reported as 39 nM. Work on `Cc1cc(C2=CCN(c3cnn(Cc4ccc(C(F)(F)F)s4)c(=O)n3)C[C@@H]2O)cs1` [Synthesis Example 15, (R)-5-[5-Hydroxy-4-(5-methylthiophen-3-yl)-5,6-dihydropyridin-1(2H)-yl]-2-{[5-(trifluoromethyl)thiophen-2-yl]methyl}-1,2,4-triazin-3(2H)-one] yielded an IC50 of 1 nM. `CCOc1ccc2c(c1)C(O)CN(c1cnn(Cc3ccc(C(F)(F)F)s3)c(=O)n1)C2` (stereo not shown) [Synthesis Example 16] gave an IC50 of 180 nM. With `Cc1csc(C2=CCN(c3cnn(Cc4cnc(C(F)(F)F)s4)c(=O)n3)C[C@@H]2O)c1` [Synthesis Example 17] the IC50 was 200 nM. Molecule `CCOc1ccc2c(c1)C(O)CN(c1cnn(Cc3cnc(C(F)(F)F)s3)c(=O)n1)C2` (stereo not shown) [Synthesis Example 18, 5-[6-Ethoxy-4-hydroxy-3,4-dihydroisoquinolin-2(1H)-yl]-2-{[2-(trifluoromethyl)thiazol-5-yl]methyl}-1,2,4-triazin-3(2H)-one] has an IC50 of 2900 nM. `COc1ccc2c(c1)CCN(c1cnn(Cc3cnc(C(F)(F)F)s3)c(=O)n1)C2C` (stereo not shown) [Synthesis Example 19] was tested, and the IC50 was 2200 nM. `O=c1nc(N2CCN(c3ccc(Cl)cc3)CC2)cnn1Cc1cnc(C(F)(F)F)s1` [Synthesis Example 20, 5-[4-(4-Chlorophenyl)piperazin-1-yl]-2-{[2-(trifluoromethyl)thiazol-5-yl]methyl}-1,2,4-triazin-3(2H)-one] was tested, and the IC50 was 190 nM. For `O=c1nc(N2CCN(c3ccc(F)c(Cl)c3)CC2)cnn1Cc1cnc(C(F)(F)F)s1` [Synthesis Example 21, 5-[4-(3-Chloro-4-fluorophenyl)piperazin-1-yl]-2-{[2-(trifluoromethyl)thiazol-5-yl]methyl}-1,2,4-triazin-3(2H)-one], the IC50 was 230 nM. For `O=c1nc(N2CC=C(c3ccc(F)cc3)C(F)C2)cnn1Cc1cnc(C(F)(F)F)s1` (stereo not shown) [Synthesis Example 22, 5-[5-Fluoro-4-(4-fluorophenyl)-5,6-dihydropyridin-(2H)-yl]-2-{[2-(trifluoromethyl)thiazol-5-yl]methyl}-1,2,4-triazin-3(2H)-one], the IC50 was 120 nM. Molecule `Cc1cc(N2CCN(c3cnn(Cc4cnc(C(F)(F)F)s4)c(=O)n3)CC2)cs1` [Synthesis Example 23, 5-[4-(5-Methylthiophen-3-yl)piperazin-1-yl]-2-{[2-(trifluoromethyl)thiazol-5-yl]methyl}-1,2,4-triazin-3(2H)-one] has an IC50 of 670 nM. Work on `Cn1cc(C2=CCN(c3cnn(Cc4cnc(C(F)(F)F)s4)c(=O)n3)C[C@@H]2O)cn1` [Synthesis Example 24, (R)-5-[5-Hydroxy-4-(1-methyl-1H-pyrazol-4-yl)-5,6-dihydropyridin-1(2H)-yl]-2-{[2-(trifluoromethyl)thiazol-5-yl]methyl}-1,2,4-triazin-3(2H)-one] yielded an IC50 of 4900 nM. Molecule `O=c1nc(N2Cc3ccc(O)cc3C(O)C2)cnn1Cc1ccc(C(F)(F)F)s1` (stereo not shown) [Synthesis Example 25, 5-[4,6-Dihydroxy-3,4-dihydroisoquinolin-2(1H)-yl]-2-{[5-(trifluoromethyl)thiophen-2-yl]methyl}-1,2,4-triazin-3(2H)-one] has an IC50 of 1800 nM. `O=c1nc(N2CC=C(c3ccc(F)cc3)[C@@H](O)C2)cnn1Cc1ccc(C(F)(F)F)o1` [Synthesis Example 27, (R)-5-[4-(4-Fluorophenyl)-5-hydroxy-5,6-dihydropyridin-1(2H)-yl]-2-{[5-(trifluoromethyl)furan-2-yl]methyl}-1,2,4-triazin-3(2H)-one] gave an IC50 of 130 nM. `O=c1nc(N2CC=C(c3ccc(F)cc3)[C@@H](O)C2)cnn1Cc1ccc(OC(F)F)nc1` [Synthesis Example 28, (R)-2-{[6-(Difluoromethoxy)pyridin-3-yl]methyl}-5-[4-(4-fluorophenyl)-5-hydroxy-5,6-dihydropyridin-1(2H)-yl]-1,2,4-triazin-3(2H)-one] gave an IC50 of 94 nM. For `COc1nc(C2=CCN(c3cnn(Cc4ccc(C(F)(F)F)s4)c(=O)n3)C[C@@H]2O)ccc1Cl` [Synthesis Example 29, (R)-5-[5-Chloro-5′-hydroxy-6-methoxy-5′,6′-dihydro-(2,4′-bipyridine)-1′(2′H)-yl]-2-{[5-(trifluoromethyl)thiophen-2-yl]methyl}-1,2,4-triazin-3(2H)-one], the IC50 was 12 nM. `Cc1cc(F)ccc1C1=CCN(c2cnn(Cc3ccc(C(F)(F)F)s3)c(=O)n2)C[C@@H]1O` [Synthesis Example 30, (R)-5-[4-(4-Fluoro-2-methylphenyl)-5-hydroxy-5,6-dihydropyridin-1(2H)-yl]-2-{[5-(trifluoromethyl)thiophen-2-yl]methyl}-1,2,4-triazin-3(2H)-one] was tested, and the IC50 was 72 nM. `Cc1cccc(C2=CCN(c3cnn(Cc4ccc(C(F)(F)F)s4)c(=O)n3)C[C@@H]2O)n1` [Synthesis Example 31, (R)-5-[5′-Hydroxy-6-methyl-5′,6′-dihydro-(2,4′-bipyridin)-1′(2′H)-yl]-2-{[5-(trifluoromethyl)thiophen-2-yl]methyl}-1,2,4-triazin-3 (2H)-one] was tested, and the IC50 was 120 nM.
